This passage reports IC50 results from patent publication US12486267B2, “Imidazo[1,2-A]pyridine and [1,2,4]triazolo[1,5-A]pyridine derivatives as TLR9 inhibitors for the treatment of fibrosis” (BRISTOL-MYERS SQUIBB COMPANY, priority 2020, dated 2025).

What is called IC50 is the concentration needed to halve the response being measured. Read a high IC50 as weaker potency in that assay.

For this assay, the target named is T1, human TLR9 (Homo sapiens, UniProt Q9NR96).
T1 sequence (Q9NR96 26-1032): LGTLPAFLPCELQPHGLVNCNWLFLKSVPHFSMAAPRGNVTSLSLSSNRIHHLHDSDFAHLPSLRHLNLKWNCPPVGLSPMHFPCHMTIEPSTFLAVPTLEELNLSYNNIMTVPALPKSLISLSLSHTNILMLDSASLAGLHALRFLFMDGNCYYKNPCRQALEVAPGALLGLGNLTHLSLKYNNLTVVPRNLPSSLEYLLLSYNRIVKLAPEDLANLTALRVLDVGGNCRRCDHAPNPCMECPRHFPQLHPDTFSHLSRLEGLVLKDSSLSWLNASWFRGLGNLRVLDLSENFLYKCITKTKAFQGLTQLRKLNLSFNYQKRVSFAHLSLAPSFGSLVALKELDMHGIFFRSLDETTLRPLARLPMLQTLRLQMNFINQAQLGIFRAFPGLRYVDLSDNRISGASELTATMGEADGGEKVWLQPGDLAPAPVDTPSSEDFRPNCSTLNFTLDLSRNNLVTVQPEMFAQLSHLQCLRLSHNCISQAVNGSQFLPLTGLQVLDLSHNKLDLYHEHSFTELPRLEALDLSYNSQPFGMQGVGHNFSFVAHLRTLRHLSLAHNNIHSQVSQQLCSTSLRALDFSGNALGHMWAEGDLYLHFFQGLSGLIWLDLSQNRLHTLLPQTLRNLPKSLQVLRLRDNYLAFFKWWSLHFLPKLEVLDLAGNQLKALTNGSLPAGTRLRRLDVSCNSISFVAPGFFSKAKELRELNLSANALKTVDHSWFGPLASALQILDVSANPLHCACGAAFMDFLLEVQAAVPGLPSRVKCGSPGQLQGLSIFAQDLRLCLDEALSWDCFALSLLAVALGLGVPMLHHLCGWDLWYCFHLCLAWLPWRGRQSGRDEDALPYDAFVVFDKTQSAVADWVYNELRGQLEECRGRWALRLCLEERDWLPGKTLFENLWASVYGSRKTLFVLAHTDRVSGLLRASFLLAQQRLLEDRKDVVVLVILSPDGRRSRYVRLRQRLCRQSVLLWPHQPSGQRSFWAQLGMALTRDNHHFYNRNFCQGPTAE
As to the kind of experiment: TLR9 inhibition reporter assay (HEK-Blue cells, SEAP reporter). Format: cell-based. The conditions noted are these: HEK-Blue cells overexpressing human TLR9; stimulated with ODN2006 5 nM; 22 hour incubation; SEAP readout. The method, then: TLR7/8/9 Inhibition Reporter Assays
HEK-Blue™-cells (Invivogen) overexpressing human TLR7, TLR8 or TLR9 receptors were used for screening inhibitors of these receptors using an inducible SEAP (secreted embryonic alkaline phosphatase) reporter gene under the control of the […] minimal promoter fused to five NF-κB and AP-1-binding sites. Briefly, cells are seeded into Greiner 384 well plates (15000 cells per well for TLR7, 20,000 for TLR8 and 25,000 for TLR9) and then treated with test compounds in DMSO to yield a final dose response concentration range of 0.05 nM-50 μM. After a 30 minute compound pre-treatment at room temperature, the cells are then stimulated with a TLR7 ligand (gardiquimod at a final concentration of 7.5 μM), TLR8 ligand (R848 at a final concentration of 15.9 μM) or TLR9 ligand (ODN2006 at a final concentration of 5 nM) to activate NF-κB and AP-1 which induce the production of SEAP. After a 22 hour incubation at 37° C., 5% CO2, SEAP levels are determined with the addition of HEK-Blue™ Detection reagent (Invivogen), a cell culture medium that allows for detection of SEAP, according to manufacturer's specifications. The percent inhibition is determined as the % reduction in the HEK-Blue signal present in wells treated with agonist plus DMSO alone compared to wells treated with a known inhibitor.
On to `COc1ccc(-c2cn3cc(C4CC5CCC(C4)N5C4CCN(CC(C)C)CC4)cc(C)c3n2)cc1OC` (single isomer, unassigned) [Example 28, 2-(3,4-dimethoxyphenyl)-6-(8-(1-isobutylpiperidin-4-yl)-8-azabicyclo[3.2.1]octan-3-yl)-8-methylimidazo[1,2-a]pyridine], for which 7.9 nM corresponded to half-maximal inhibition (IC50).

Molecule `COc1ccc(-c2cn3cc(C4CC5CCC(C4)N5C4CCN(CC(C)C)CC4)cc(C)c3n2)cc1OC` (single isomer, unassigned) [Example 29, 2-(3,4-dimethoxyphenyl)-6-(8-(1-isobutylpiperidin-4-yl)-8-azabicyclo[3.2.1]octan-3-yl)-8-methylimidazo[1,2-a]pyridine] had a half-maximal inhibitory concentration (IC50) of 10 nM.

Molecule `Cc1cc(C2CCN(C3CC4CCC(C3)N4C(C)C)CC2)cn2cc(-c3ccc(S(C)(=O)=O)cc3)nc12` (single isomer, unassigned) [Example 62, 6-(1-(8-isopropyl-8-azabicyclo[3.2.1]octan-3-yl)piperidin-4-yl)-8-methyl-2-(4-(methylsulfonyl)phenyl)imidazo[1,2-a]pyridine] returned an IC50 of 98 nM.

On to `CC(C)CN1C2CCC1CC(N1CCC([C@@H]3CCc4nc(-c5ccc(S(C)(=O)=O)cc5)cn4C3)CC1)C2` (single isomer, unassigned) [Example 81], for which the midpoint of inhibition, the IC50, lay at 9.1 nM.

In turn, `Cc1cc(C2CCN(C3CC4CCC(C3)N4C3CCC3)CC2)cn2cc(-c3ccc(S(C)(=O)=O)cc3)nc12` (single isomer, unassigned) [Example 83, 6-(1-(8-cyclobutyl-8-azabicyclo[3.2.1]octan-3-yl)piperidin-4-yl)-8-methyl-2-(4-(methylsulfonyl)phenyl)imidazo[1,2-a]pyridine] yielded an IC50 of 12 nM.

Molecule `Cc1cc(C2CCN(C3CC4CCC(C3)N4C3CCC3)CC2)cn2cc(-c3ccc(S(C)(=O)=O)cc3)nc12` (single isomer, unassigned) [Example 84, 6-(1-(8-cyclobutyl-8-azabicyclo[3.2.1]octan-3-yl)piperidin-4-yl)-8-methyl-2-(4-(methylsulfonyl)phenyl)imidazo[1,2-a]pyridine] yielded an IC50 of 21 nM.

As for `Cc1cc(C2CCN(C3CC4CCC(C3)N4CC(C)C)CC2)cn2cc(-c3ccc(S(C)(=O)=O)cc3)nc12` (single isomer, unassigned) [Example 85, 6-(1-(8-isobutyl-8-azabicyclo[3.2.1]octan-3-yl)piperidin-4-yl)-8-methyl-2-(4-(methylsulfonyl)phenyl)imidazo[1,2-a]pyridine], the 50% inhibitory concentration (IC50) is 27 nM.

As for `Cc1cc(C2CCN(C3CC4CCC(C3)N4CC(C)C)CC2)cn2cc(-c3ccc(S(C)(=O)=O)cc3)nc12` (single isomer, unassigned) [Example 86, 6-(1-(8-isobutyl-8-azabicyclo[3.2.1]octan-3-yl)piperidin-4-yl)-8-methyl-2-(4-(methylsulfonyl)phenyl)imidazo[1,2-a]pyridine], 102 nM corresponded to half-maximal inhibition (IC50).

For `Cc1cc(C2CCN(C3CC4CCC(C3)N4CC3CC3)CC2)cn2cc(-c3ccc(S(C)(=O)=O)cc3)nc12` (single isomer, unassigned) [Example 88, 6-(1-(8-(cyclopropylmethyl)-8-azabicyclo[3.2.1]octan-3-yl)piperidin-4-yl)-8-methyl-2-(4-(methylsulfonyl)phenyl) imidazo[1,2-a]pyridine], the half-maximal inhibitory concentration (IC50) was determined as 120 nM.

`Cc1cc(C2CCN(C3CC4CCC(C3)N4CC3CCC3)CC2)cn2cc(-c3ccc(S(C)(=O)=O)cc3)nc12` (single isomer, unassigned) [Example 90, 6-(1-(8-(cyclobutylmethyl)-8-azabicyclo[3.2.1]octan-3-yl)piperidin-4-yl)-8-methyl-2-(4-(methylsulfonyl)phenyl)imidazo[1,2-a]pyridine] came in with an IC50 of 104 nM.

As for `Cc1cc(C2CCN(C3CCN(C4CCC4)CC3)CC2)cn2cc(-c3ccc(S(C)(=O)=O)cc3)nc12` [Example 91, 6-(1′-cyclobutyl-[1,4′-bipiperidin]-4-yl)-8-methyl-2-(4-(methylsulfonyl)phenyl) imidazo[1,2-a]pyridine], the IC50 was determined as 19 nM.

`Cc1cc(C2CCN(C3CCN(CC4CCC4)CC3)CC2)cn2cc(-c3ccc(S(C)(=O)=O)cc3)nc12` [Example 93, 6-(1′-(cyclobutylmethyl)-[1,4′-bipiperidin]-4-yl)-8-methyl-2-(4-(methylsulfonyl)phenyl)imidazo[1,2-a]pyridine] had an IC50 of 83 nM.

In the case of `COCCN1CCN(c2ccc(-c3cc(C)c4nc(-c5ccc(S(C)(=O)=O)cc5)cn4c3)cc2)CC1` [Example 105, 6-(4-(4-(2-methoxyethyl)piperazin-1-yl)phenyl)-8-methyl-2-(4-(methylsulfonyl)phenyl) imidazo[1,2-a]pyridine], the IC50 stood at 1000 nM.

`CS(=O)(=O)c1ccc(-c2cn3cc(C4CCN(C5CCN(C6CC6)CC5)CC4)c(F)cc3n2)cc1` [Example 124, 6-(1′-cyclopropyl-[1,4′-bipiperidin]-4-yl)-7-fluoro-2-(4-(methylsulfonyl)phenyl) imidazo[1,2-a]pyridine] came in with an IC50 of 158 nM.

Regarding `COc1ccc(-c2nc3n(n2)CC(C2CCC(N4CCN(C(C)C)CC4)CC2)CC3C)cc1OC` (stereo not shown) [Example 143, 2-(3,4-dimethoxyphenyl)-6-(4-(4-isopropylpiperazin-1-yl)cyclohexyl)-8-methyl-5,6,7,8-tetrahydro-[1,2,4]triazolo[1,5-a]pyridine], the midpoint of inhibition, the IC50, lay at 7330 nM.

Molecule `COc1ccc(-c2nc3n(n2)CC(c2ccc(N4CCN(C(C)C)CC4)cc2)CC3C)cc1OC` (stereo not shown) [Example 144, 2-(3,4-dimethoxyphenyl)-6-(4-(4-isopropylpiperazin-1-yl)phenyl)-8-methyl-5,6,7,8-tetrahydro-[1,2,4]triazolo[1,5-a]pyridine] had an IC50 of 1460 nM.

On to `COc1ccc(-c2nc3n(n2)CC(C2CC4CCC(C2)N4C2CCN(C4CC4)CC2)CC3)cc1OC` (stereo not shown) [Example 145, 6-(8-(1-cyclopropylpiperidin-4-yl)-8-azabicyclo[3.2.1]octan-3-yl)-2-(3,4-dimethoxyphenyl)-5,6,7,8-tetrahydro-[1,2,4]triazolo[1,5-a]pyridine], for which the half-maximal inhibitory concentration (IC50) was determined as 342 nM.

`COc1ccc(-c2nc3ccc(C4CC5CCC(C4)N5C4CCN(C5CC5)CC4)cn3n2)cc1OC` (stereo not shown) [Example 146, 6-(8-(1-cyclopropylpiperidin-4-yl)-8-azabicyclo[3.2.1]octan-3-yl)-2-(3,4-dimethoxyphenyl)-[1,2,4]triazolo[1,5-a]pyridine] registered an IC50 of 769 nM.

The molecule `Cc1cc(-c2ccc(N3CCN(C(C)C)CC3)cc2)cn2nc(-c3ccc(S(C)(=O)=O)cc3)nc12` [Example 147, 6-(4-(4-isopropylpiperazin-1-yl)phenyl)-8-methyl-2-(4-(methylsulfonyl)phenyl)-[1,2,4]triazolo[1,5-a]pyridine] yielded an IC50 of 909 nM.

Consider `COc1ccc(-c2nc3n(n2)CC(C2CC4CCC(C2)N4C2CCN(C(C)C)CC2)CC3)cc1OC` (stereo not shown) [Example 148, 2-(3,4-dimethoxyphenyl)-6-(8-(1-isopropylpiperidin-4-yl)-8-azabicyclo[3.2.1]octan-3-yl)-5,6,7,8-tetrahydro-[1,2,4]triazolo[1,5-a]pyridine], for which the IC50 is 303 nM.

The molecule `COc1ccc(-c2nc3ccc(C4CC5CCC(C4)N5C4CCN(C(C)C)CC4)cn3n2)cc1OC` (stereo not shown) [Example 149, 2-(3,4-dimethoxyphenyl)-6-(8-(1-isopropylpiperidin-4-yl)-8-azabicyclo[3.2.1]octan-3-yl)-[1,2,4]triazolo[1,5-a]pyridine] registered a 50% inhibitory concentration (IC50) of 217 nM.

In the case of `CC1CC(c2ccc(N3CCN(C(C)C)CC3)cc2)Cn2nc(-c3ccc(S(C)(=O)=O)cc3)nc21` (stereo not shown) [Example 150, 6-(4-(4-isopropylpiperazin-1-yl)phenyl)-8-methyl-2-(4-(methylsulfonyl)phenyl)-5,6,7,8-tetrahydro-[1,2,4]triazolo[1,5-a]pyridine], the half-inhibitory concentration (IC50) was found to be 20900 nM.
